From publication doi:10.1101/2021.09.15.460527v1 (bioRxiv, 2021)
Starred links: 1 amine or outer side, 2 acyl side, 3 side chain; linkers in the order of their positions; H or OH if unused. Groups on a side chain read outwards from the residue. No end group written: not given here. *: point of attachment. γGlu = O=C(O)[C@H](CCC(=O)[*:2])N[*:1]; Palmitoyl = CCCCCCCCCCCCCCCC(=O)*

System: rats with heroin self-administration experience
Assay: Cue-induced heroin seeking
Assay type: in vivo, rat
Details: 0.3 mg/kg sc

liraglutide (HAEGTFTSDVSSYLEGQAAK([γGlu-Palmitoyl])EFIAWLVRGRG; chains of the INN, looked up)
Minimum effective pretreatment time: between four and six
